According to ChEMBL document CHEMBL1201862, “PubChem BioAssay data set” (2004):
The source made the active and inactive calls.

Tests used:
[1] = target: T1, Rac GTPase-activating protein 1 (Homo sapiens, UniProt Q9H0H5); experiment: MgcRacGAP GTPase-activating activity inhibitors, confirmation, biochemical, ADP Hunter fluorescence, primary and confirmatory (AID 624330); assay type: functional
T1 sequence (Q9H0H5 whole entry): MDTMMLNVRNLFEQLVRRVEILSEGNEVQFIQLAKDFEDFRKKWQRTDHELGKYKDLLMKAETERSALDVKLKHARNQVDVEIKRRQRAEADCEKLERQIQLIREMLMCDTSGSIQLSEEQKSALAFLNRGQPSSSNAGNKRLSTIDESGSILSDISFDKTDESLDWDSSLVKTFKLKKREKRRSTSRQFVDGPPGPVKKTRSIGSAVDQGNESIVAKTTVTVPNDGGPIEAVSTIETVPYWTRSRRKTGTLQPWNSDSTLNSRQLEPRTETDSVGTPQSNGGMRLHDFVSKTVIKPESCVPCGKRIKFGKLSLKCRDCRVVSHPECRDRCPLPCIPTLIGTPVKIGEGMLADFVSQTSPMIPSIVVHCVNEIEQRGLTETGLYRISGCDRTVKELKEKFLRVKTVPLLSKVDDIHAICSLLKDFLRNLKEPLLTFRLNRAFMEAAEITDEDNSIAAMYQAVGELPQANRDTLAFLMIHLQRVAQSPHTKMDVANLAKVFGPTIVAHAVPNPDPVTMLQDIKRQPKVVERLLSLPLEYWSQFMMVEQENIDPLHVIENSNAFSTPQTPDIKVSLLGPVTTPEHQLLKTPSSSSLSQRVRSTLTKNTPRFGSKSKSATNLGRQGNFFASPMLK

Large T antigen = Large T antigen (Simian virus 40, UniProt P03070); assay type: functional, Betapolyomavirus macacae;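 also: Confirmatory-stage PubChem screen for compounds that inhibit SV40 T antigen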
[2] = target: T2, Heat shock factor protein 1 (Mus musculus, UniProt P38532); experiment: HSF1 potentiators in luciferase reporter cells, confirmation, cell-based, NIH3T3, luminescence, dose retest (AID 435004); assay type: functional;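 also: stress induced by proteasome inhibitor MG132 added 30 min after compound; luciferase reporter driven by HSF1 response element in NIH3T3 cells; actives raise luminescence as potentiators of the MG132 stress response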
T2 sequence (P38532 whole entry): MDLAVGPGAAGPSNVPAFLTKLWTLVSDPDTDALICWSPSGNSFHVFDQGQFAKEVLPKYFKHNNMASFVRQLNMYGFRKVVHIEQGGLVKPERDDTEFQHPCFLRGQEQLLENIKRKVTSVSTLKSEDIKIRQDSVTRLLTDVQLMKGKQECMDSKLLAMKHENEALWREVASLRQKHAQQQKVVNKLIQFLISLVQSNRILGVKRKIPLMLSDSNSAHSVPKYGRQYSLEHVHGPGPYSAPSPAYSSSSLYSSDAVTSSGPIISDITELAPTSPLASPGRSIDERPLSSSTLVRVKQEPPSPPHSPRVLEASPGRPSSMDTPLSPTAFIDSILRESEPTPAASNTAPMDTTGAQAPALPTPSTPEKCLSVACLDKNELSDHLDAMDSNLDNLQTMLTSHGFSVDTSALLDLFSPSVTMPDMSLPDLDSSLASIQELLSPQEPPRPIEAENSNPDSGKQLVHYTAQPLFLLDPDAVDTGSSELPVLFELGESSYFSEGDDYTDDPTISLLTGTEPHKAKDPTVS

cells [3] = assay type: functional, cell-based
cells [4] = assay type: functional, cell-based; remark: listed apart in the source
[5] = target: T3, Polyadenylate-binding protein 1 (Homo sapiens, UniProt P11940); experiment: PABP1 MLLE–PAM2 binding inhibitor potency, dose response, biochemical, fluorescence polarization, FITC-PAM2 peptide (AID 602259); assay type: functional; conditions: read-out: IC50_Mean
[6] = target: T3, Polyadenylate-binding protein 1; experiment: PABP1 MLLE–PAM2 interaction inhibitors, dose response, miRNA deadenylation inhibitor project, biochemical, fluorescence polarization, Cy5-PAM2 peptide, secondary (AID 602260); assay type: functional; conditions: read-out: IC50_Mean
[7] = HEp-2 cell cytotoxicity, dose response, cytotoxicity control for RSV inhibitor project, HTS (AID 2410); assay type: functional; conditions: human respiratory syncytial virus
Protein skinhead-1 = target: T4, Protein skinhead-1 (Caenorhabditis elegans, UniProt P34707); assay type: functional
T4 sequence (P34707 whole entry): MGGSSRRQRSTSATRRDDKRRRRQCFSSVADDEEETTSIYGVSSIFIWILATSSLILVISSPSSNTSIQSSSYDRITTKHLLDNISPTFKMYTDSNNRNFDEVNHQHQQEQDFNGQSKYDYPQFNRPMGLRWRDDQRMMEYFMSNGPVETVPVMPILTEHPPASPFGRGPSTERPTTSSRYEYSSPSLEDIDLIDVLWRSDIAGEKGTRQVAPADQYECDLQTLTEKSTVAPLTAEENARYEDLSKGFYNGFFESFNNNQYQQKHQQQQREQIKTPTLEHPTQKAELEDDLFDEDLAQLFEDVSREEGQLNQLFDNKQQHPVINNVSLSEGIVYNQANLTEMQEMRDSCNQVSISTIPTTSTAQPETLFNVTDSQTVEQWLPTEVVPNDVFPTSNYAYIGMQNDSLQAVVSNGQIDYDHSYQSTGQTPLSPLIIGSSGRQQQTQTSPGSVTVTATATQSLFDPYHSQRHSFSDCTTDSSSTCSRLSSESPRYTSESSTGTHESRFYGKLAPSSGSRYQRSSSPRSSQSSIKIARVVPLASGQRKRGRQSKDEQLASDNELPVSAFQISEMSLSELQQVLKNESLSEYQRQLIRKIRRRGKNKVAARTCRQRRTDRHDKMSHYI

[8] = C. albicans growth with fluconazole, confirmation, fluorescence, retest (AID 2467); assay type: functional, cell-based
[9] = NIH-3T3 fibroblast cytotoxicity, dose response, cytotoxicity control, cell-based, fluorescence, Alamar Blue, secondary assay (AID 2327); assay type: functional;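 also: NIH-3T3 mouse fibroblasts cultured with fluconazole at 8 µg/mL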
INS1 = experiment: beta cell apoptosis inhibitors, cytokine rescue, dose response, luminescence, retest (AID 449756); assay type: functional, cell-based; conditions: Rattus norvegicus, INS1;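 also: cell death triggered by IL-1 beta plus TNF-alpha plus IFN-gamma mixture; protective hits raise ATP signal compared with cytokine alone wells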
[10] = target: T5, Corticotropin-releasing factor receptor 2/Corticotropin-releasing factor-binding protein (Homo sapiens, UniProt P24387+Q13324); experiment: Dose Response confirmation of uHTS hits for small molecule antagonists of the CRF-binding protein and CRF-R2 receptor complex.; assay type: functional; conditions: read-out: IC50_Mean
T5 sequence (Q13324 whole entry): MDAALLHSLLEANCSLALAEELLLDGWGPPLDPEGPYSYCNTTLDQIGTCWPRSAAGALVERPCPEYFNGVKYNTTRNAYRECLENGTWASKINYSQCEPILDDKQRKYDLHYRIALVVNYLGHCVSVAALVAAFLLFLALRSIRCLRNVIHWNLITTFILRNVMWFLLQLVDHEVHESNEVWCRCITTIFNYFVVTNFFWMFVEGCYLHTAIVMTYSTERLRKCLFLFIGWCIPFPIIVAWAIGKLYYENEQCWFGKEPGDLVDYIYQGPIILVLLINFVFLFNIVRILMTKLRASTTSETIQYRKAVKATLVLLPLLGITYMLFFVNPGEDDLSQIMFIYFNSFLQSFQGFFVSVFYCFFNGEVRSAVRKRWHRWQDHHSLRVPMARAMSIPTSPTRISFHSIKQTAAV
T5 sequence (P24387 whole entry): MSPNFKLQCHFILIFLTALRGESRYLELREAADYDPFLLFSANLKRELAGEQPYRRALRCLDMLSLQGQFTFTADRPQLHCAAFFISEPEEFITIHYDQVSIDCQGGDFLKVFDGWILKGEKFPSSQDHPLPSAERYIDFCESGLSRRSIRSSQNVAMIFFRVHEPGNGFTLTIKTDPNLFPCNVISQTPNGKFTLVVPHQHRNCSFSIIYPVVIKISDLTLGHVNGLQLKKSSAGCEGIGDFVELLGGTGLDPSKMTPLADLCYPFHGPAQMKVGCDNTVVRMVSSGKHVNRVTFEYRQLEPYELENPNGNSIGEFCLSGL

[11] = target: T5, Corticotropin-releasing factor receptor 2/Corticotropin-releasing factor-binding protein; experiment: activators of CRF receptor 2 with binding protein – uHTS hits, confirmation (AID 602473); assay type: functional; conditions: read-out: EC50_Mean

Large T antigen, sequence (P03070 whole entry): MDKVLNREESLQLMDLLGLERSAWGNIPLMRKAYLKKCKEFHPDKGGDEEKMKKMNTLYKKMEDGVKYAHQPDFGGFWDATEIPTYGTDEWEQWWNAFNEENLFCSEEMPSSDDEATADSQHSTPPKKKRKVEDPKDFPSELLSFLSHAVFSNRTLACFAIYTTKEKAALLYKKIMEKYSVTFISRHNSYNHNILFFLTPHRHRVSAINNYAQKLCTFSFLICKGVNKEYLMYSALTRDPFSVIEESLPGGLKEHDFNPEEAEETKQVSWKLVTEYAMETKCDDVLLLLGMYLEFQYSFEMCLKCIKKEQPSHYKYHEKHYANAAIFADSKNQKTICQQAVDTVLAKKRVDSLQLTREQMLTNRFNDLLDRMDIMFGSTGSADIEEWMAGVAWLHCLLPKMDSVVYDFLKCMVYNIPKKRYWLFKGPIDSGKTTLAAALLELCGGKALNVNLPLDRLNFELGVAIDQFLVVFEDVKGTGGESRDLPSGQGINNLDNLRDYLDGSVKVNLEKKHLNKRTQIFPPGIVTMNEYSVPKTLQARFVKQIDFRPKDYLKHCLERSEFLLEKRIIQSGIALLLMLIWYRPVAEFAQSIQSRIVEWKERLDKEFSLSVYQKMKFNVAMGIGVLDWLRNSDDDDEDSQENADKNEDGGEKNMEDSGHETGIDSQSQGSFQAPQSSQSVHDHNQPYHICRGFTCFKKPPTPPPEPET
T3 sequence (P11940 whole entry): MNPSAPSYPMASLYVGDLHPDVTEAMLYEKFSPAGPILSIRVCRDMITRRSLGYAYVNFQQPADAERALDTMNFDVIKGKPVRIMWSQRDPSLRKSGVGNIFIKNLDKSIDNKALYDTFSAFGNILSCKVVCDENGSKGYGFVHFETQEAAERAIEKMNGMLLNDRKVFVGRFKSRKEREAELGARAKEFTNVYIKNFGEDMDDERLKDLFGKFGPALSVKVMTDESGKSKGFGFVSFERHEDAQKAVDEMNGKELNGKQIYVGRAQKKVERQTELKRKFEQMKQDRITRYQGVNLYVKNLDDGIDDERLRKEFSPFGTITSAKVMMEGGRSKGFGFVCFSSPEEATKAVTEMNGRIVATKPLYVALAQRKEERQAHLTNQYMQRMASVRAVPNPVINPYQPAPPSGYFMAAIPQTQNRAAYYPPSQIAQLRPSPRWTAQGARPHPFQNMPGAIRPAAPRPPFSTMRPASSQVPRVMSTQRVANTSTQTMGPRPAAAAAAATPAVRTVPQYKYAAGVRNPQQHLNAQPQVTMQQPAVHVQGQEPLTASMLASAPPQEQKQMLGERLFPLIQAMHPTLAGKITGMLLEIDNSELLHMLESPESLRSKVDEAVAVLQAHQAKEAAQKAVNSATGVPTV

O=C(C[n+]1ccccc1)NN=Cc1ccc(O)cc1
IC50 [1]: 75 µM (active) | IC50 (Large T antigen): 11.3 µM (active)

COc1ccc(NC(=S)c2ccc(N(C)C)cc2)cc1
EC50 [2]: > 260 µM (inactive) | EC50 (cells [3]): 145 µM (active) | EC50 (cells [4]): > 350 µM (not active)

CCN1C(=O)/C(=C2\Sc3ccccc3N2CC)OC1=S
IC50 [5]: > 66 µM (inactive) | IC50 [6]: > 66 µM (inactive)

CC1CC2(CCCCC2)Nc2ccc3ccccc3c21 (stereo not given)
EC50 [2]: > 260 µM (inactive)

COC(=O)/C=C1\SC(NC(=O)c2ccc(C)cc2)=NC1=O
IC50 [5]: > 66 µM (inactive) | IC50 [6]: > 66 µM (inactive)

COc1ccc(Cl)cc1NC(=O)CN(C(=O)c1ccco1)C1CCCCC1
IC50 [5]: > 66 µM (inactive) | IC50 [6]: > 66 µM (inactive)

NC(=Nc1ccccc1C(F)(F)F)Nc1nc(O)c2c(n1)CCC2
EC50 [2]: > 260 µM (inactive) | CC50 [7]: 46.9 µM (active)

CS(=O)(=O)N1N=C(c2cccs2)CC1c1ccccc1O (stereo not given)
IC50 (Protein skinhead-1): > 100 µM (inactive)

Cc1oc(-c2ccoc2)nc1CN(CC1CCC(=O)N1)C(C)C (stereo not given)
EC50 [2]: > 260 µM (inactive)

O=S1(=O)N=C(Nc2ccc(N3CCOCC3)cc2)c2ccccc21
EC50 [8]: > 38 µM (not active) | EC50 [9]: > 160 µM (inactive)

COc1ccc(/C=C2/SC(=O)N(CCNC(=O)C3COc4ccccc4O3)C2=O)cc1 (stereo not given)
EC50 [2]: > 260 µM (inactive)

O=Cc1ccc(OC(=O)c2cc(Cl)nc3ccccc23)cc1
IC50 [5]: > 66 µM (inactive) | IC50 [6]: > 66 µM (inactive)

COc1ccc2ccc(O)c(CN3CC=C(c4ccccc4)CC3)c2c1
EC50 [2]: 34.6 µM (active)

COc1ccc(S(=O)(=O)Nc2ccc(S(=O)(=O)Nc3ccc(F)cc3)cc2)cc1C
IC50 (Protein skinhead-1): > 100 µM (inactive)

CC(=O)O[C@H]1[C@@H](O)[C@H](O)[C@H](Oc2c(O)c(C)c3c4c2[C@@H](C)CC[C@@H]4[C@@H](C)C[C@@H]3C=C(C)C)O[C@H]1C
IC50 (Protein skinhead-1): > 100 µM (inactive)

O=C(C1=C(O)C(=O)N(Cc2cccnc2)C1c1cccc(O)c1)c1ccc2c(c1)OCCO2 (stereo not given)
EC50 [2]: > 260 µM (inactive)

CCOc1ccc2c(c1)n([O-])c1c([n+]2=O)CCCC1
IC50 [5]: > 66 µM (inactive) | IC50 [6]: > 66 µM (inactive)

O=C(Nc1ccc(N=Nc2ccccc2)c(NC(=O)C2CCCO2)c1)C1CCCO1 (stereo not given)
EC50 [8]: > 38 µM (not active) | EC50 [9]: > 160 µM (inactive)

O=C(Nc1ccc2oc(-c3cccnc3)nc2c1)c1ccc(Br)o1
IC50 (Protein skinhead-1): > 100 µM (inactive)

CNc1nc(-c2ccccc2)cc(C)c1S(C)(=O)=O
EC50 [2]: > 260 µM (inactive)

CN(C)c1ccc(-c2nc3cnccn3c2Nc2ccc3c(c2)OCCO3)cc1
IC50 (Large T antigen): 12 µM (active)

Cc1ccc(-[n+]2c(-c3ccccc3)cn3c2CCC3)cc1
EC50 [8]: > 38 µM (not active) | AC50 (INS1): 2.83 µM (active) | EC50 [9]: > 150 µM (inconclusive)

CC1=NN(c2ccccc2)C(=O)/C1=C\C=C1\N(C)c2ccccc2C1(C)C
IC50 (Protein skinhead-1): 42.5 µM (active)

CCN(CC)S(=O)(=O)c1ccc(N2CCOCC2)c(NC(=O)c2cc3ccccc3oc2=O)c1
EC50 [2]: > 260 µM (inactive)

Cc1cs/c(=N\N=C\c2ccc(O)cc2)n1Cc1ccco1
IC50 [1]: 28.8 µM (active) | IC50 (Large T antigen): 25.5 µM (active)

C=CCNc1nc(-c2ccc([N+](=O)[O-])cc2)cs1
IC50 (Protein skinhead-1): 23.7 µM (active)

O=c1cc(-c2ccc(F)cc2)oc2ccccc12
IC50 [10]: > 47.1 µM (inactive) | IC50 (Protein skinhead-1): 16.2 µM (active) | EC50 [11]: > 53 µM (inactive)

Cc1c(C(=O)Oc2ccc(-c3cnc4ccccc4n3)cc2)cccc1[N+](=O)[O-]
IC50 (Large T antigen): 58.2 µM (active)

Cc1c(NC(=S)NC(=O)c2cc3ccccc3o2)cccc1C(=O)O
IC50 [5]: > 66 µM (inactive) | IC50 [6]: > 66 µM (inactive)

COc1cc(C2Nc3ccc4ncccc4c3C3=C2C(=O)CCC3)cc(OC)c1OC (stereo not given)
EC50 [2]: 29.3 µM (active)

CCNC(=O)c1sc(=S)n(-c2ccc(C)cc2)c1N
IC50 [5]: > 66 µM (inactive) | IC50 [6]: > 66 µM (inactive)

S=C1N=C(c2ccccc2)NCN1c1ccc(Br)cc1
EC50 [2]: 236 µM (active)

Cc1ccc(CNC(=O)CSc2nccn(-c3ccc(C)c(F)c3)c2=O)cc1
IC50 [5]: > 66 µM (inactive) | IC50 [6]: > 66 µM (inactive)

O=C(COc1ccc2c(c1)CCC2)N1CCN(c2cccc(C(F)(F)F)c2)CC1
EC50 [8]: > 38 µM (not active) | EC50 [9]: > 160 µM (inactive)

Cn1nnc(NC(=S)NC(=O)c2ccc3ccccc3c2)n1
IC50 [5]: > 66 µM (inactive) | IC50 [6]: > 66 µM (inactive)

O=C(c1ccc(S(=O)(=O)NCc2ccco2)cc1)N1CCN(c2ccc(F)cc2)CC1
IC50 (Protein skinhead-1): > 100 µM (inactive)

C#CCNC(=O)C1=C[C@@H](c2cn(C(C)=O)c3ccccc23)C[C@@H](OCCCCO)O1
IC50 (Protein skinhead-1): > 100 µM (inactive)

Oc1ccc(/N=C/c2cc(Br)c(N3CCOCC3)o2)cc1
IC50 [1]: 42 µM (active) | IC50 (Large T antigen): 21.7 µM (active)
